In patent publication US5300672A (priority 1992, dated 1994):
Read-outs that look alike come from different tables or passages of the source.

Key:
Piricularia oryzae = experiment: whole plant or invertebrate; assay type: in vivo; conditions: for pest or weed control at 200 ppm / pest or weed control at 100 ppm / pest or weed control at 25 ppm: Pyricularia oryzae; for pest or weed control at 200 ppm: read-out: % Control RB, application rate 200 ppm
[1] = system: Pellicularia filamentosa (f. sp. sasiki); experiment: whole plant or invertebrate; assay type: in vivo
Pseudomonas fluorescens = experiment: Alternate Minimum Inhibitory Concentrations Test (Table 4), Ps.fl; assay type: cell-based; conditions: Table 4 alternate test, 250 ppm to 0.8 ppm in TSB, 72 hours, 30° C.; for MIC: Pseudomonas fluorescens, read-out: MIC Ps.fl
Summary of the method: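 MIC taken as lowest concentration showing no growth after 72 h incubation at 30 °C in TSB. Twofold dilution series spanned 250 down to 0.8 ppm, wells inoculated with phosphate-buffer-diluted 24 h culture.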

[2] = system: Puccinia graminis (f. sp. tritici Race 15B-2); experiment: whole plant or invertebrate; assay type: in vivo; conditions: for pest or weed control at 200 ppm / pest or weed control at 100 ppm: Puccinia graminis, 336 h, read-out: % Control WSR
[3] = system: Erysiphe graminis (f. sp. tritici); experiment: whole plant or invertebrate; assay type: in vivo
Phytophthora infestans = experiment: whole plant or invertebrate; assay type: in vivo; conditions: for pest or weed control at 25 ppm: read-out: % Control TLB, application rate 25 ppm
[4] = system: Pseudoperonospora cubensis; experiment: whole plant or invertebrate; assay type: in vivo
[5] = system: Puccinia recondita (f. sp. tritici Races PKB and PLD); experiment: whole plant or invertebrate; assay type: in vivo
[6] = Blumeria graminis, read-out: % Control WPM
[7] = Phytophthora infestans, in Solanum lycopersicum, 96 h, read-out: % Control TLB
[8] = Pseudoperonospora cubensis, in Cucumis sativus, 168 h, read-out: % Control CDM
[9] = Puccinia recondita, 240 h, read-out: % Control WLR
[10] = Phytophthora infestans, in Solanum lycopersicum, 96 h, read-out: % Control TLB, application rate 100 ppm
[11] = read-out: % Control RB, application rate 100 ppm
[12] = Phytophthora infestans, in Solanum lycopersicum, 96 h

Row | SMILES | pest or weed control at 200 ppm (Piricularia oryzae) [%] | pest or weed control at 100 ppm ([1]; 120 h, read-out: % Control RSB) [%] | MIC (Pseudomonas fluorescens) [µg/mL] | pest or weed control at 200 ppm [2] [%] | pest or weed control at 100 ppm [3, 6] [%] | pest or weed control at 100 ppm (Phytophthora infestans; [7]) [%] | pest or weed control at 50 ppm [4, 8] [%] | pest or weed control at 100 ppm [5, 9] [%] | pest or weed control at 100 ppm (Piricularia oryzae; [11]) [%] | also measured
1 | CCCCCCCCNC(=O)/C=C\SC(=O)Cc1ccccc1 [Compound 12, N-octyl-cis-3-(phenylacetylthio)acrylamide] | 90 | 0 | > 250 | 90 | 0 | 90 | 85 | 0 | – | –
2 | CCCCCCCCNC(=O)/C=C\SC(=O)/C=C/c1ccccc1 [Compound 14, N-octyl-cis-3-[(trans-3-phenylprop-2-enoyl)thio]acrylamide] | – | 0 | > 250 | 75 | 0 | 90 | 50 | 0 | – | pest or weed control at 100 ppm (Piricularia oryzae; read-out: % Control RB): 100%
3 | CCCCCCCCNC(=O)/C=C\SC(=O)c1ccco1 [Compound 15, N-octyl-cis-3-(2-furoylthio)acrylamide] | – | 0 | > 250 | 90 | 0 | – | 50 | 95 | – | pest or weed control at 100 ppm (Piricularia oryzae; read-out: % Control RB): 100%; pest or weed control at 100 ppm (Phytophthora infestans; [10]): 95%
4 | CCCCCCCCNC(=O)/C=C\SC(=O)c1ccc(OC)cc1 [Compound 16, N-octyl-cis-3-[(4-methoxybenzoyl)thio]acrylamide] | – | 0 | > 250 | – | 0 | 90 | – | 75 | – | pest or weed control at 25 ppm (Piricularia oryzae; read-out: % Control RB): 100%; pest or weed control at 100 ppm [2]: 75%; pest or weed control at 12 ppm [4, 8]: 50%
5 | CCCCCCCCNC(=O)/C=C\SC(=O)c1ccc([N+](=O)[O-])o1 [Compound 17, N-octyl-cis-3-[(5-nitro-2-furoyl)thio]acrylamide] | – | 0 | > 250 | 95 | 0 | 90 | 50 | 0 | 80 | –
6 | CCCCCCCCNC(=O)/C=C\SC(=O)c1cc(Cl)sc1Cl [Compound 18, N-octyl-cis-3-[(2,5-dichloro-3-thiophene)carbonylthio]acrylamide] | – | 0 | > 250 | 50 | 0 | – | 70 | 0 | 50 | pest or weed control at 25 ppm (Phytophthora infestans; [12]): 100%
7 | CCCCCCCCNC(=O)/C=C\SC(=O)c1cccc(CCl)c1 [Compound 22, N-octyl-cis-3-[(3-(chloromethyl)benzoyl)thio]acrylamide] | – | 0 | > 250 | 75 | 0 | – | 99 | 0 | 0 | pest or weed control at 25 ppm (Phytophthora infestans; [12]): 95%
8 | CCCCCCCCNC(=O)/C=C\SC(=O)C(C)(C)C [Compound 25, N-octyl-cis-3-[(1,1-dimethylpropanoyl)thio]acrylamide] | – | 0 | > 250 | – | 0 | – | 85 | 0 | 0 | pest or weed control at 100 ppm [2]: 90%; pest or weed control at 100 ppm (Phytophthora infestans; [10]): 100%
9 | CCCCCCCCNC(=O)/C=C\SC(=O)COc1ccccc1 [Compound 26, N-octyl-cis-3-(phenoxyacetylthio)acrylamide] | – | 0 | > 250 | – | 0 | 90 | 85 | 0 | 80 | pest or weed control at 100 ppm [2]: 90%
10 | CCCCCCCCNC(=O)/C=C\SC(=O)CCCCl [Compound 29, N-octyl-cis-3-[(4-chlorobutanoyl)thio]acrylamide] | 75 | 0 | > 250 | 75 | 0 | 90 | 85 | 0 | – | –
11 | CCCCCCCCNC(=O)/C=C\SC(=O)C(=O)OC [Compound 30, N-octyl-cis-3-(methyloxalylthio)acrylamide] | – | 0 | > 250 | 75 | 0 | 80 | 70 | – | 0 | pest or weed control at 25 ppm [5, 9]: 50%
12 | CCCCCCCCNC(=O)/C=C\SCc1ccc(C(F)(F)F)cc1 [Compound 33, N-octyl-cis-3-[(4-(trifluoromethyl)benzyl)thio]acrylamide] | – | 0 | > 250 | 75 | 85 | 80 | 50 | 0 | – | pest or weed control at 25 ppm (Piricularia oryzae; read-out: % Control RB, application rate 25 ppm): 80%
13 | CCCCCCCCNC(=O)C=CSC(CO)COc1ccccc1 (stereo not drawn) [Compound 40, N-octyl-cis-3-[(1-hydroxy-3-phenoxy-2-propane)thio]acrylamide] | – | – | – | – | – | – | – | – | – | % Control RB (Piricularia oryzae; in vivo): 75 % Control; % Control RSB ([1]; in vivo): 0 % Control; MIC Ps.fl (Pseudomonas fluorescens): > 250 Ppm; % Control WSR ([2]; application rate 200 ppm): 75 % Control; % Control WPM ([3]; in vivo): 50 % Control; % Control TLB (Phytophthora infestans; application rate 100 ppm): 95 % Control; % Control CDM ([4]; in vivo): 85 % Control; % Control WLR ([5]; in vivo): 0 % Control
14 | CCCCCCCCNC(=O)/C=C\SC(=O)C(C)(C)CCl [Compound 44, N-octyl-cis-3-[(2,2-dimethyl-3-chloropropanoyl)thio]acrylamide] | 0 | – | > 250 | – | – | – | – | – | – | pest or weed control at 200 ppm ([1]; 120 h, read-out: % Control RSB): 0%; pest or weed control at 100 ppm [2]: 0%; pest or weed control at 200 ppm [3, 6]: 0%; pest or weed control at 200 ppm (Phytophthora infestans; [7]): 90%; pest or weed control at 200 ppm [4, 8]: 0%; pest or weed control at 200 ppm [5, 9]: 0%
15 | CCCCCCCCNC(=O)/C=C\SC(=O)CCC(=O)OC [Compound 51, N-octyl-cis-3-[(3-methoxycarbonylpropanoyl)thio]acrylamide] | 0 | – | > 250 | 90 | 0 | 80 | 85 | 0 | – | pest or weed control at 25 ppm ([1]; 120 h, read-out: % Control RSB): 90%
16 | CCCCCCCCNC(=O)/C=C\SC(=O)CCC(=O)OCC [Compound 52, N-octyl-cis-3-[(3-ethoxycarbonylpropanoyl)thio]acrylamide] | 0 | 0 | > 250 | 90 | 0 | 80 | 70 | 0 | – | –
17 | CCCCCCCCNC(=O)/C=C\SC(=O)c1cccnc1 [Compound 55, N-octyl-cis-3-[(3-pyridine)carbonylthio]acrylamide] | 0 | 0 | > 250 | 90 | 50 | – | – | 0 | – | pest or weed control at 100 ppm (Phytophthora infestans; [10]): 95%; pest or weed control at 12 ppm [4, 8]: 70%
